Data published in patent US5948814A, “Genistein for the treatment of cystic fibrosis” (priority 1998, dated 1999).
“And” between values parts separate entries of the source, which are not always exact repeats. Identical values can stand only once. Like-named read-outs stand apart in the source and are kept apart here.

Assays:
[1] = target: T1, wt-CFTR (Homo sapiens, UniProt P13569)
Procedure: FIGS. 3A and B show recordings of the potentiation of wild-type (wt) and ΔF508-CFTR channel activity by genistein. […]
(§1) Cell culture: NIH/3T3-CFTR, NIH/3T3-ΔF508, and NIH/3T3 mock cells (generous gifts from Dr. Richard Mulligan of Children's Hospital and Medical Center, Harvard Medical School) were grown as described [Bradbury et al., 1992] at 37° C. and 5% CO2 in Dulbecco's modified Eagle's medium-H21 supplemented with 10% new-born calf serum, 4 mM glutamine, 25 mM glucose, 100 μg/ml penicillin, 100 μg/ml streptomycin, and 50 μg/ml gentamicin. Cells were maintained in T75 flasks, passaged at 90-95% confluency, and split one to four. For measurements of I^- efflux and in vivo phosphorylation, cells were seeded onto 35-mm dishes at […]. For patch-clamp experiments, cells were grown on coverglass chips in 35-mm culture dishes. Media were replaced 24 hours after plating and thereafter every 48 hours. In all cases, media were changed on the day before I^- efflux studies, NIH/3T3-ΔF508 cells were transferred to 27° C. three days before use, and 1 day prior to study, media were supplemented with 5 mM butyrate. For patch-clamp studies, where a constant level of functional ΔF508-CFTR was not essential, NIH/3T3-ΔF508 cells were cultured at 27° C. for 2-6 days before use. Calu-3 cells were grown and maintained as described by Hunter [1995].
Electrophysiology: CFTR channel currents were recorded at room temperature (~22° C.) with a patch-clamp amplifier (EPC-9, Heka Electronic), filtered at 100 Hz with a built-in three-pole Bessel filter, and stored on videotapes. Data were subsequently refiltered at 25 Hz with an eight-pole Bessel filter (Frequency Device, Havervill, Mass.) and captured onto a hard disk at a sampling rate of 50 Hz. […] Patch-clamp electrodes were made from Corning 7052 glass capillaries (Warner Instrument, Hammed, Conn.). The pipette resistance was usually 3-5 M.OMEGA., and the seal resistance was >20 G.OMEGA.. The pipette solution contained (in mM) 140 N-methyl-D-glucamine chloride (NMDG-C1), 2 MgCl2, 5Ca Cl2, and 10 HEPES (pH 7.4 with NMDG). The superfusion solution contained (in mM) 150 […], 2 MgCl2, 1 EGTA, 5 glucose, and 5 HEPES (pH 7.4 with NaOH). In excised inside-out patch experiments, the bath solution contained (in mM) 130 MNDG-Cl, 10 EGTA, 10 HEPES, 20 tetraethylammonium chloride, 8 Tris, and 2 MgCl2 (pH 7.4 with NMDG). Pipette potential was held at 50 mV relative to the bath. Downward deflections represent channel opening.
Statistics: Mean currents and variance were estimated with Igor (Wavemetrics, Lake Oswego, Oreg.). Parameters for mean current-variance relationships and dose-response curves were obtained from least-square fitting with Sigmaplot (Jandel, San Rafael, Calif.). Po was calculated from patches containing a single channel by dividing the open channel current amplitude with the mean-current amplitude.

[2] = target: T1, wt-CFTR; test: cell-based; type: cell-based; set-up: expressed in transfected cells
Procedure: FIG. 1 is a graph representing the dose-responses relationship for forskolin-dependent I^- efflux. Peak rates of I^- efflux in the presence (closed symbols) or absence (open symbols) of 50 μM genistein were obtained with NIH/3T3-cystic fibrosis transmembrane conductance regulator (NIH/3T3-CFTR) (circles) and NTH/3T3-Δphenylalanine 508 (ΔF508) cells (triangles). NIH/3T3-CFTR cells are cultured at 37° C. NIH/3T3-Δ508 cells are cultured at 27° C. for 3 days prior to assay. Data are mean values±SE (n>5). Lines were fit by nonlinear least squares.
as §1
I^- efflux: I^- efflux was measured as described previously [Reenstra et al., 1996]. Briefly, cells were incubated for 30 minutes with 37° C. I^- efflux buffer [(in mM) 141 NaCl, 4 KCl, 1 KH2 PO4, 0.9 MgCl2, 1.7 CaCl2. 10 N-2hydroxyethylpiperazine-N'-2-ethanesulfonic acid (HEPES), 25 glucose pH 7.4] containing 5 μCi/ml carrier-free ^125 I^- (sodium salt). Extracellular ^125 I^- was removed by washing four times with efflux buffer, and the rate of loss of intracellular ^125 I^- was determined by replacing the bathing solution with 37° C. efflux buffer every 60 seconds for 12 minutes. Time-dependent rates of ^125 I^- efflux are calculated from R=ln(^125 I^-t1 /^125 I^-t2)/(t1-t2), where ^125 I^-t is the intracellular ^125 I^- at time t and t1 and t2 are successive time points. Dose-response curves were obtained from peak rates of 125I^- efflux by nonlinear least squares fitting to R=[Ro +Rmx ·([fsk]/K1/2)]/[1+([fsk]/K1/2)], where Ro and Rmx are the rates of ^125 I efflux at zero and infinite concentration of forskolin (fsk), and K1/2 is the concentration of agonist that gives a half-maximal change.
To investigate effects of genistein on CFTR activity, the rates of I^- efflux were measured from stably transfected NIH/3T3 cells expressing wt- and ΔF508-CFTR (NIH/33-CFTR and NIH/3T3-ΔF508 cells, respectively).

[3] = target: T1, wt-CFTR; type: cell-based; set-up: expressed in transfected cells
Procedure: FIGS. 4A and B are graphs showing the variance analysis of macroscopic currents for wt- and ΔF508-CFTR wherein (A) is a plot of variance as a function of mean-current amplitude for NIH/3T3-CFTR(.circle-solid.) and NIH/3T3-ΔF508 (.smallcircle.) cells stimulated with 10 μM forskolin plus 50 μM genistein. (B) is a plot of variance as a function of mean-current amplitude for NIH/3T3-CFTR (.circle-solid.) and NIH/3T3-ΔF508 (.smallcircle.) cells stimulated with 10 μM forskolin. Lines are least square regressions.
Electrophysiology: CFTR channel currents were recorded at room temperature (~22° C.) with a patch-clamp amplifier (EPC-9, Heka Electronic), filtered at 100 Hz with a built-in three-pole Bessel filter, and stored on videotapes. Data were subsequently refiltered at 25 Hz with an eight-pole Bessel filter (Frequency Device, Havervill, Mass.) and captured onto a hard disk at a sampling rate of 50 Hz. […] Patch-clamp electrodes were made from Corning 7052 glass capillaries (Warner Instrument, Hammed, Conn.). The pipette resistance was usually 3-5 M.OMEGA., and the seal resistance was >20 G.OMEGA.. […]
Statistics: Mean currents and variance were estimated with Igor (Wavemetrics, Lake Oswego, Oreg.). […] Po was calculated from patches containing a single channel by dividing the open channel current amplitude with the mean-current amplitude. […] Calculated values are presented as means±SE. […]

T1 sequence (P13569 whole entry): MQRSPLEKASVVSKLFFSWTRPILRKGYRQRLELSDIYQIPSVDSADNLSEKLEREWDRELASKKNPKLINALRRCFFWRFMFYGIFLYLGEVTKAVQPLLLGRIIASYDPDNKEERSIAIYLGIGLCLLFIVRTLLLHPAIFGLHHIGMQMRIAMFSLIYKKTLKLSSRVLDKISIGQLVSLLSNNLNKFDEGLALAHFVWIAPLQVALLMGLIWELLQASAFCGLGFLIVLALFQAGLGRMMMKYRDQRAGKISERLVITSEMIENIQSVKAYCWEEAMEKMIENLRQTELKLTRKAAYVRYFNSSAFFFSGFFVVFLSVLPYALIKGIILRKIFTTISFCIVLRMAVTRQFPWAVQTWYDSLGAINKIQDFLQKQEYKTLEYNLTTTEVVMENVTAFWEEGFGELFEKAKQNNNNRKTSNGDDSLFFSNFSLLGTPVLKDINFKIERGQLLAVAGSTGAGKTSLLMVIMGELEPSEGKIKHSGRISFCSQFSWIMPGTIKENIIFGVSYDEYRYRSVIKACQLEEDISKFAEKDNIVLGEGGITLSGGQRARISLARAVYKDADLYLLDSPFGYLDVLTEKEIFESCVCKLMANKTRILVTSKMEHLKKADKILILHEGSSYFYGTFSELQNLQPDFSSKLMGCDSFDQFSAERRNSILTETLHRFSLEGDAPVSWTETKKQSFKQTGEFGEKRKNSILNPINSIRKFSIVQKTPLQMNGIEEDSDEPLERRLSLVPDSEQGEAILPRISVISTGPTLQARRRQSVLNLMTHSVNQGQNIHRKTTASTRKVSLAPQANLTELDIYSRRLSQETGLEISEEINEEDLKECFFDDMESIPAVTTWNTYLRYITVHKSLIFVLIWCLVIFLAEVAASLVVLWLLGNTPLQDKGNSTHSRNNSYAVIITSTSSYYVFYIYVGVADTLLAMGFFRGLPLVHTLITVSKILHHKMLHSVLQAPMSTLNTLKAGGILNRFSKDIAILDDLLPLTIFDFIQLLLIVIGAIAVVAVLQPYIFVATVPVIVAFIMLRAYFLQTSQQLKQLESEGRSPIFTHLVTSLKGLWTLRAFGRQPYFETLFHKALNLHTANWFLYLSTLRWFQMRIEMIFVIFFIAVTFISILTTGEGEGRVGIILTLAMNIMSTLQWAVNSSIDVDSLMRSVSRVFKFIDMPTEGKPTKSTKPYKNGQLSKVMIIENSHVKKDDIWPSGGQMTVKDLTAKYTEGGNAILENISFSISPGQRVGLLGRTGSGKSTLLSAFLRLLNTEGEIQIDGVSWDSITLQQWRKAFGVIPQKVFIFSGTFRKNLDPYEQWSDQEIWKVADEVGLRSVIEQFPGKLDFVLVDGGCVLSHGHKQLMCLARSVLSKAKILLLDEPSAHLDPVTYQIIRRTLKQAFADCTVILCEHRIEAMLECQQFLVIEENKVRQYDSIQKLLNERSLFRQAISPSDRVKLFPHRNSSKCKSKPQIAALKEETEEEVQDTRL

Row | SMILES | macroscopic current ([1]; 5 μM genistein with 50 nM forskolin) | average increase in mean-current amplitude by genistein ([1]; 50 μM genistein on 10 μM forskolin, NIH/3T3-CFTR, 50 µM) | increase of forskolin-dependent wt-CFTR activity by genistein ([1]; 50 μM genistein, NIH/3T3-CFTR cells incubated at 27° C. for 2-6 days, n=13) | increase of wt-CFTR current by genistein ([1]; multichannel patches, 50 nM forskolin, n=6) | effect on I- efflux at high forskolin concentrations ([2]; 50 μM genistein, high forskolin) | slope of variance vs mean current (proportional to 1-Po) ([3]; 10 μM forskolin and 50 μM genistein) | single-channel current steps observed ([1]; 50 nM forskolin) | EC50 [2] | stimulation of normal CFTR activity [2] | maximal fold induction at 10 µM ([2]; mouse, read-out: maximal stimulation of I- efflux) | EC50 ([2]; read-out: K1/2 of forskolin for I- efflux in presence of genistein, with 50 μM genistein, NIH/3T3-CFTR cells) | slope of variance vs mean current (proportional to 1-Po) ([3]; 10 μM forskolin)
1 | O=c1c(-c2ccc(O)cc2)coc2cc(O)cc(O)c12 [Genistein, 4',5,7-trihydroxyisoflavone] | ~ 7.5 pA | 3.9±0.4 fold and 3.3±0.4 fold | 3.1±0.3 fold | 21±6 fold | had no effect at high forskolin concentrations | 0.17±0.02 pA | – | – | – | – | – | –
2 | C=C[C@@]1(C)CC(=O)[C@]2(O)[C@@]3(C)[C@@H](O)CCC(C)(C)[C@@H]3[C@H](O)[C@H](OC(C)=O)[C@@]2(C)O1 [forskolin] | – | – | – | – | – | – | ≤ 4 | 110 ± 30 nM | stimulates normal CFTR activity very well | 8.2 ± 0.4 | 50 ± 20 nM | 0.27±0.02 pA
